Assay results reported in ChEMBL document CHEMBL2073987, “The sulphonylurea glibenclamide inhibits multidrug resistance protein (MRP1) activity in human lung cancer cells” (Br J Pharmacol, 2001).

Columns and labels:
[1] = molecular target: ATP-binding cassette sub-family C member 2 (Rattus norvegicus, UniProt Q63120); test: TP_TRANSPORTER: inhibition of Carboxy-2',7'-dichlorofluorescein efflux (Calcein: 0.5 micro;M, Glibenclamide, 50-100 uM, increase intercellular CF level by ~2 fold) in isolated rat hepatocytes; type: functional, cell-based, Hepatocyte
[2] = molecular target: Multidrug resistance-associated protein 1 (Homo sapiens, UniProt P33527); test: TP_TRANSPORTER: inhibition of Calcein efflux (Calcein: 0.5 micro;M, Glibenclamide: 50-100 uM, increase intercellular calcein level by ca 4 fold ) in GLC4/Sb30 cells; type: functional, cell-based
Chain of Multidrug resistance-associated protein 1 (P33527 whole entry): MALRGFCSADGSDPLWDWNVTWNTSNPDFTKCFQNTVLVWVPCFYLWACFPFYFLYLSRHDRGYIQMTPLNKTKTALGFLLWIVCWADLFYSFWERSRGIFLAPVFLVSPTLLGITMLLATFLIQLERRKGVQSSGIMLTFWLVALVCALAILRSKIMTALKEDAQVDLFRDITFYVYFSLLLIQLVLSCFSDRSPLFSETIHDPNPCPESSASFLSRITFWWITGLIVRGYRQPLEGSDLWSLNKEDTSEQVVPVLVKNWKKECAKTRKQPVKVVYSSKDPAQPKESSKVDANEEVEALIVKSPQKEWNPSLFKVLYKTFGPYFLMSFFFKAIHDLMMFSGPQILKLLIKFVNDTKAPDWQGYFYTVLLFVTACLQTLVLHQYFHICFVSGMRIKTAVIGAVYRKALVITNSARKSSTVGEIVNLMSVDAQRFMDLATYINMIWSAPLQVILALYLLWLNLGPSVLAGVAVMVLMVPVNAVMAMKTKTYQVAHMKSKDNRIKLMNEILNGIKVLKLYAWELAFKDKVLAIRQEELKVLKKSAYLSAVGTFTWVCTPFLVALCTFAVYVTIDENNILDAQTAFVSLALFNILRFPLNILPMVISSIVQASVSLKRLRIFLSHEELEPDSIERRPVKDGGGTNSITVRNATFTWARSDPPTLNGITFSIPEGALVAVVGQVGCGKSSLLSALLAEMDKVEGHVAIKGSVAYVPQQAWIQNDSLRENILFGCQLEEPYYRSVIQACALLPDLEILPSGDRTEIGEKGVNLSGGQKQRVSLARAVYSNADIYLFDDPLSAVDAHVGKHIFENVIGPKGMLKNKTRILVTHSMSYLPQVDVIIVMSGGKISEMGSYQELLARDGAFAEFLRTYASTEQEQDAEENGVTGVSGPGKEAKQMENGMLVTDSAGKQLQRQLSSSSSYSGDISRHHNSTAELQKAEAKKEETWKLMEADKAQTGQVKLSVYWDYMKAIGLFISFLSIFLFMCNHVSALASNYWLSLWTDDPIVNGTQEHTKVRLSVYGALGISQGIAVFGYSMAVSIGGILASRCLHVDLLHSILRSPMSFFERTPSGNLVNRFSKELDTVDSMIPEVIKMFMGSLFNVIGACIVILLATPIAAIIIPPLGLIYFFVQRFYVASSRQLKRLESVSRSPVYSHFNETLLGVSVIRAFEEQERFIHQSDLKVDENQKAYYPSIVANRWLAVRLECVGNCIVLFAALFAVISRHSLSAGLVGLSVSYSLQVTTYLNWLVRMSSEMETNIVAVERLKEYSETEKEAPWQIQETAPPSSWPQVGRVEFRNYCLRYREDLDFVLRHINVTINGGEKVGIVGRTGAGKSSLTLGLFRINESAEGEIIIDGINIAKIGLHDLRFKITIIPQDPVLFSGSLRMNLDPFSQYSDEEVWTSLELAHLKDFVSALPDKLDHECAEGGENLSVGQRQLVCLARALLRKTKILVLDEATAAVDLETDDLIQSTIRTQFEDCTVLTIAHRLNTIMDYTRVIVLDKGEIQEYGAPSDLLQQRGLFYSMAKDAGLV

Chain of ATP-binding cassette sub-family C member 2 (Q63120 whole entry): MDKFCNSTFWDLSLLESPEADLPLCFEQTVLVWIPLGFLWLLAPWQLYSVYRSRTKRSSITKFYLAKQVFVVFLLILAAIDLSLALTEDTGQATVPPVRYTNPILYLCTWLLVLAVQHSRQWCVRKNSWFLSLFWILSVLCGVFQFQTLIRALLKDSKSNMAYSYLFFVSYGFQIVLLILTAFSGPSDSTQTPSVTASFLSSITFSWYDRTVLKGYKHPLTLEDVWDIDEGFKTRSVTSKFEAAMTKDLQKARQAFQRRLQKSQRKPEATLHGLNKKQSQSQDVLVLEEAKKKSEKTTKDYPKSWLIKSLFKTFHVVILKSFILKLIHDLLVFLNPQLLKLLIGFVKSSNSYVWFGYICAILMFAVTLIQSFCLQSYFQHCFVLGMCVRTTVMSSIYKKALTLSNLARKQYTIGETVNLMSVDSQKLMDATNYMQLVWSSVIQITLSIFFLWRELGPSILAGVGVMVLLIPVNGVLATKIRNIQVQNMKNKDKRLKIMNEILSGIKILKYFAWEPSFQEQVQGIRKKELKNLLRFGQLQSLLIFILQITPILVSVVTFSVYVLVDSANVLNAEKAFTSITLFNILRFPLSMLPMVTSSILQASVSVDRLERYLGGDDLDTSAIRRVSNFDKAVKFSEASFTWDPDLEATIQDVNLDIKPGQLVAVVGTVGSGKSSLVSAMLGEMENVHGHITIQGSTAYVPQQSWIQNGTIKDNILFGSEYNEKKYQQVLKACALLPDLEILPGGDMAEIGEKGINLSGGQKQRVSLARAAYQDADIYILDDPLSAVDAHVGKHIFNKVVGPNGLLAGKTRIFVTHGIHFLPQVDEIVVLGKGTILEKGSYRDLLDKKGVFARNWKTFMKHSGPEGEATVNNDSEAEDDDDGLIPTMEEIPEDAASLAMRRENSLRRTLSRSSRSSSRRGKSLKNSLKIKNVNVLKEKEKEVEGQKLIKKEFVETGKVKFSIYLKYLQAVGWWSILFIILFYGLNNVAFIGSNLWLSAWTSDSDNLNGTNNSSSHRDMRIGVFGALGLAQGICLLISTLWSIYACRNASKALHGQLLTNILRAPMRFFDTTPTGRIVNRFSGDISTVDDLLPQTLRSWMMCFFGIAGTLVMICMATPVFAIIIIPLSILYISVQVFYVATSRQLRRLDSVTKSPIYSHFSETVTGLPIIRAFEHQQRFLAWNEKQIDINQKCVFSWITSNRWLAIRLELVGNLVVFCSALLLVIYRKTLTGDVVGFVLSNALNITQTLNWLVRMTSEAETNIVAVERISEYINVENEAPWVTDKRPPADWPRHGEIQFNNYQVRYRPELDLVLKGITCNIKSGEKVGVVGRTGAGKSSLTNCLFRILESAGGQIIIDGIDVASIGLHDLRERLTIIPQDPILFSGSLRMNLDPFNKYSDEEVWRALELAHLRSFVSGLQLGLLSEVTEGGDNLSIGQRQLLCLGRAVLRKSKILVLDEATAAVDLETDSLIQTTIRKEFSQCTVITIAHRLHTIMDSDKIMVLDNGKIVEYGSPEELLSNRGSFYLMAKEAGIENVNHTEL

COc1ccc(Cl)cc1C(=O)NCCc1ccc(S(=O)(=O)NC(=O)NC2CCCCC2)cc1 [GLYBURIDE]
Activity [1]: inhibitor [+] | Activity [2]: inhibitor [+]
